The results in this text go back to ChEMBL document CHEMBL1909046, “DrugMatrix in vitro pharmacology data”.

Assay [1] can be described thus: DRUGMATRIX: ATPase, Na+/K+ enzyme inhibition (substrate: ATP). The class given is tissue-based, Sus scrofa, Heart. To be noted: Not Active = under 50% inhibition at 10 µM.
The target in assay [2] is C-C chemokine receptor type 2 (Homo sapiens, UniProt P41597). The class given is cell membranes, CHO-K1, Membrane. Note: in other assays of this panel Not Active means under 50% inhibition at 10 µM.
Assay [3] deals with T1, C-X-C chemokine receptor type 2 (Homo sapiens, UniProt P25025).
T1 sequence (P25025 whole entry): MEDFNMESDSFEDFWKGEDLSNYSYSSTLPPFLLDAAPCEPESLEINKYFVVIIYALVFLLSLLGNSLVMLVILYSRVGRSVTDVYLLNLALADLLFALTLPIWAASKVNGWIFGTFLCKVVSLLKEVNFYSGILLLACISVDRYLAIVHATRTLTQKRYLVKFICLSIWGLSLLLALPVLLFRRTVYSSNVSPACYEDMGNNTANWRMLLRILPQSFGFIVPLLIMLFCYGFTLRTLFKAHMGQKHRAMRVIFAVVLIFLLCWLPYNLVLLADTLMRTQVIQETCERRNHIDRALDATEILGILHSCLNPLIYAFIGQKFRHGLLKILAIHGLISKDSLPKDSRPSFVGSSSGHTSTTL
The class given is cell membranes, Membrane. To be noted: cho-k1.

Assay [4] has as its target T2, Cholecystokinin receptor type A (Homo sapiens, UniProt P32238). Note: in other assays of this panel Not Active means under 50% inhibition at 10 µM.
T2 sequence (P32238 whole entry): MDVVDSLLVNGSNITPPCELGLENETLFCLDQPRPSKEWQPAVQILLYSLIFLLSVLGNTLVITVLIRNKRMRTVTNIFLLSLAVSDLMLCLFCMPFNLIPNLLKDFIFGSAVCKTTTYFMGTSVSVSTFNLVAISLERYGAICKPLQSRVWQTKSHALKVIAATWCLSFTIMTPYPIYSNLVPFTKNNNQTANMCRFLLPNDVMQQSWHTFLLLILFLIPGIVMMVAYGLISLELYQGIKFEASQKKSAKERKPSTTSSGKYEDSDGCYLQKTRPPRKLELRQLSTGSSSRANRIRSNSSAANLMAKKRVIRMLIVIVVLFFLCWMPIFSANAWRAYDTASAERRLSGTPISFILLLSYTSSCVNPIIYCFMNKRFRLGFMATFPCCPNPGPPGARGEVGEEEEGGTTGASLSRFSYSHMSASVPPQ
The class given is cell membranes, Membrane. Particulars: 1321-n1.

Assay [5] can be described thus: DRUGMATRIX: GABAA, Chloride Channel, TBOB radioligand binding (ligand: [3H] TBOB). The class given is cell membranes, Rattus norvegicus, Wistar, Cerebral cortex, Membrane. To be noted: Not Active = under 50% inhibition at 10 µM.
For assay [6], the target named is Tyrosine-protein kinase Lck (Homo sapiens, UniProt P06239). Description: DRUGMATRIX: Protein Tyrosine Kinase, LCK enzyme inhibition (substrate: Poly(Glu:Tyr)). The class given is cell-based, Insect cells. Particulars: insect cells; Not Active = under 50% inhibition at 10 µM.
The target of assay [7] is 5-hydroxytryptamine receptor 1B (Rattus norvegicus, UniProt P28564). The class given is cell membranes, Wistar, Cerebral cortex, Membrane. Note: in other assays of this panel Not Active means under 50% inhibition at 10 µM.
5-hydroxytryptamine receptor 1B, sequence (P28564 whole entry): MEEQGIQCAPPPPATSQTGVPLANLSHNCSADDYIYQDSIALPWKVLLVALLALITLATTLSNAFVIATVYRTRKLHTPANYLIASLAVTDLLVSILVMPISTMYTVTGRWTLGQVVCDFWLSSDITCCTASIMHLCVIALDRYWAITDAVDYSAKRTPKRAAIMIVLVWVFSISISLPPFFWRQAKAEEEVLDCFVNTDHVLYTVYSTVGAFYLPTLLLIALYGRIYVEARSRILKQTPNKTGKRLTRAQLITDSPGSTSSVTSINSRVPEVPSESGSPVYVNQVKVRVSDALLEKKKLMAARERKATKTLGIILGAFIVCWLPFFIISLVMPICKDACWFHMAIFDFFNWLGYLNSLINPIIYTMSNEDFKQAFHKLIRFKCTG

C-C chemokine receptor type 2, sequence (P41597 whole entry): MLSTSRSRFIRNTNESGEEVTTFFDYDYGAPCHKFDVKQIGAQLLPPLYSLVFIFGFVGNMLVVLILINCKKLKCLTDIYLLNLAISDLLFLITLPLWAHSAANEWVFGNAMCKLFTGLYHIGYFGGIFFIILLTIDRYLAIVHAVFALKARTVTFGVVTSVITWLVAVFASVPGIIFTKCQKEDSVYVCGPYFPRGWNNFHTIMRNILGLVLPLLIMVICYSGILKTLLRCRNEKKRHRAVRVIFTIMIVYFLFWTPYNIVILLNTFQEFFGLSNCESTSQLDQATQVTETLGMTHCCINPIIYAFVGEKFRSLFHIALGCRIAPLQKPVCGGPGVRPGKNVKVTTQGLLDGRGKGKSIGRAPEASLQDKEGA
Tyrosine-protein kinase Lck, sequence (P06239 whole entry): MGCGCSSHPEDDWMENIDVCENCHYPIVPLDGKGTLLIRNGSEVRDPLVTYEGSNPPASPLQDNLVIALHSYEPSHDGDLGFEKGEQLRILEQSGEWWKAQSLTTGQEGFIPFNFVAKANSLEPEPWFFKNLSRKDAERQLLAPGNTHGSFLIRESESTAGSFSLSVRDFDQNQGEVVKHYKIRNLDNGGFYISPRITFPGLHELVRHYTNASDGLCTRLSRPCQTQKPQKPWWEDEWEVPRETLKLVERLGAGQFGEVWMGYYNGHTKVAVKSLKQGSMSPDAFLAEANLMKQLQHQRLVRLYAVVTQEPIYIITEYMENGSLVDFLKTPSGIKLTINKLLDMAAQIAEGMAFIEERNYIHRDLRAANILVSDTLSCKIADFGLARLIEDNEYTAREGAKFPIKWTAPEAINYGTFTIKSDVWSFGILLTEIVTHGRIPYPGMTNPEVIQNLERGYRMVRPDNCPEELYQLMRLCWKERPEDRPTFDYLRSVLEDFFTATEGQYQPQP

`Nn1nnc2ccccc21`: the IC50 result in assay [1], in assay [2] (cho-k1), in assay [3], in assay [4], in assay [5] and in assay [6] was “Not Active” in each case. Besides, the IC50 entry in assay [7] is “Not Active”. In addition, the inhibition constant Ki entry in assay [1] and in assay [5] was “Not Active” throughout.

On to `CC[C@]1(O)CC[C@H]2[C@@H]3CCC4=CCCC[C@@H]4[C@H]3CC[C@@]21C`, for which the IC50 entry in assay [1], in assay [2] (cho-k1), in assay [3], in assay [4], in assay [5] and in assay [6] was “Not Active” each time. Moreover, in assay [7], the IC50 result is recorded as “Not Active”. Also, the Ki result in assay [1] and in assay [5] was “Not Active” in each case.

Regarding `N[C@@H](Cc1ccc(F)cc1)C(=O)O`, the IC50 result in assay [1], in assay [2] (cho-k1), in assay [3], in assay [4], in assay [5] and in assay [6] was “Not Active” each time. Further, the concentration for half-maximal inhibition (IC50) result in assay [7] was “Not Active”. For the same compound, the Ki result in assay [1] and in assay [5] was “Not Active” in each case.

Take `CCOC(=O)[C@H](CCc1ccccc1)N[C@@H](C)C(=O)N1Cc2ccccc2C[C@H]1C(=O)O`: the half-inhibitory concentration (IC50) result in assay [1], in assay [2] (cho-k1), in assay [3], in assay [4], in assay [5] and in assay [6] was “Not Active” throughout. Further, in assay [7], the 50% inhibitory concentration (IC50) entry is “Not Active”. In addition, the inhibition constant Ki entry in assay [1] and in assay [5] was “Not Active” each time.

`O=C(c1ccccc1Cl)N1CCC(Cc2ccccc2)CC1`: the IC50 entry in assay [1], in assay [2] (cho-k1), in assay [3], in assay [4], in assay [5] and in assay [6] was “Not Active” in each case. Besides, the IC50 result in assay [7] is on record as “Not Active”. Further, the Ki result in assay [1] and in assay [5] was “Not Active” throughout.

Regarding `CCOC(=O)[C@H](CCc1ccccc1)N[C@@H](C)C(=O)N1CCC[C@H]1C(=O)O`, the IC50 entry in assay [1], in assay [2] (cho-k1), in assay [3], in assay [4], in assay [5] and in assay [6] was “Not Active” each time. Moreover, the half-inhibitory concentration (IC50) entry in assay [7] is reported as “Not Active”. In addition, the inhibition constant (Ki) result in assay [1] and in assay [5] was “Not Active” each time.

Take `Clc1cc2c(cc1Cl)Oc1cc(Cl)c(Cl)cc1O2` [2,3,7,8-TETRACHLORODIBENZO-P-DIOXIN]: the IC50 result in assay [1], in assay [2] (cho-k1), in assay [3], in assay [4], in assay [5] and in assay [6] was “Not Active” in each case. Further, the IC50 result in assay [7] was “Not Active”. Further, the inhibition constant (Ki) result in assay [1] and in assay [5] was “Not Active” in each case.

With `C=C1/C(=C\C=C2/CCC[C@]3(C)[C@@H]([C@H](C)CCCC(C)C)CC[C@@H]23)C[C@@H](O)C[C@@H]1O` [ALFACALCIDOL], the 50% inhibitory concentration (IC50) entry in assay [1], in assay [2] (cho-k1), in assay [3], in assay [4], in assay [5] and in assay [6] was “Not Active” throughout. The IC50 entry in assay [7] is “Not Active”. The Ki result in assay [1] and in assay [5] was “Not Active” in each case.

For the compound `CCCCCC[C@H]1C(=O)O[C@H](C)[C@H](NC(=O)c2cccc(NC=O)c2O)C(=O)O[C@@H](C)[C@@H]1OC(=O)CC(C)C` [ANTIMYCIN A], the half-inhibitory concentration (IC50) entry in assay [1], in assay [2] (cho-k1), in assay [3], in assay [4], in assay [5] and in assay [6] was “Not Active” in each case. Further, in assay [7], the half-maximal inhibitory concentration (IC50) entry is listed as “Not Active”. The Ki entry in assay [1] and in assay [5] was “Not Active” in each case.

With `C[C@@H]1CC[C@H]2[C@@H](C)C(=O)O[C@@H]3O[C@@]4(C)CC[C@@H]1[C@]32OO4` [ARTEMISININ], the half-inhibitory concentration (IC50) entry in assay [1], in assay [2] (cho-k1), in assay [3], in assay [4], in assay [5] and in assay [6] was “Not Active” each time. In assay [7], the IC50 entry is on record as “Not Active”. The Ki entry in assay [1] and in assay [5] was “Not Active” throughout.

With `CO[C@H]1[C@@H](O)[C@H](N)[C@@H](O[C@H]2O[C@H]([C@H](C)N)CC[C@H]2N)[C@H](O)[C@@H]1N(C)C(=O)CN` [ASTROMICIN], the IC50 entry in assay [1], in assay [2] (cho-k1), in assay [3], in assay [4], in assay [5] and in assay [6] was “Not Active” in each case. In addition, in assay [7], the half-maximal inhibitory concentration (IC50) result is “Not Active”. Besides, the Ki result in assay [1] and in assay [5] was “Not Active” throughout.

On to `[N-]=[N+]=CC(=O)OC[C@H](N)C(=O)O` [AZASERINE], for which the IC50 entry in assay [1], in assay [2] (cho-k1), in assay [3], in assay [4], in assay [5] and in assay [6] was “Not Active” throughout. For the same compound, the concentration for half-maximal inhibition (IC50) entry in assay [7] is on record as “Not Active”. Besides, the Ki entry in assay [1] and in assay [5] was “Not Active” each time.

As to `CC[C@H]1OC(=O)[C@H](C)[C@@H](O[C@H]2C[C@@](C)(OC)[C@@H](O)[C@H](C)O2)[C@H](C)[C@@H](O[C@@H]2O[C@H](C)C[C@H](N(C)C)[C@H]2O)[C@](C)(O)C[C@@H](C)CN(C)[C@H](C)[C@@H](O)[C@]1(C)O` [AZITHROMYCIN], the half-maximal inhibitory concentration (IC50) entry in assay [1], in assay [2] (cho-k1), in assay [3], in assay [4], in assay [5] and in assay [6] was “Not Active” in each case. Further, the half-inhibitory concentration (IC50) result in assay [7] was “Not Active”. In addition, the Ki entry in assay [1] and in assay [5] was “Not Active” each time.

As for `CC(C)(C)c1ccc(S(=O)(=O)/C=C/C#N)cc1` [BAY-11-7085], the half-maximal inhibitory concentration (IC50) result in assay [1] was “Not Active”; in assay [2] (read-out: IC50), 4.18 µM; in assay [3] it was “Not Active”; in assay [4], “Not Active”; in assay [5], “Not Active”; in assay [6] it was “Not Active”. In assay [7], the half-maximal inhibitory concentration (IC50) entry is recorded as “Not Active”. Moreover, the Ki entry was “Not Active” in assay [1], 1.61 µM in assay [2] (read-out: Ki) and “Not Active” in assay [5].

As to `CCc1oc2ccccc2c1C(=O)c1cc(Br)c(O)c(Br)c1` [BENZBROMARONE], the IC50 result in assay [1], in assay [2] (cho-k1), in assay [3], in assay [4], in assay [5] and in assay [6] was “Not Active” throughout. Also, the half-inhibitory concentration (IC50) result in assay [7] is listed as “Not Active”. Besides, the inhibitory constant (Ki) entry in assay [1] and in assay [5] was “Not Active” throughout.

Consider `O=c1cc(-c2ccccc2)oc2ccc3ccccc3c12` [BETA-NAPHTHOFLAVONE], for which the IC50 result in assay [1], in assay [2] (cho-k1), in assay [3], in assay [4], in assay [5] and in assay [6] was “Not Active” throughout. The IC50 result in assay [7] was “Not Active”. Also, the inhibitory constant (Ki) entry in assay [1] and in assay [5] was “Not Active” each time.
